# Measurements: patent publication US6180618A, “Propanolamine derivatives linked to bile acids, processes for their preparation, pharmaceuticals comprising these compounds, and their use” (Aventis Pharma Deutschland GmbH, priority 1998, dated 2001)
# Molecular target: T1, Na+-dependent bile acid transportation system (intestinal bile acid transportation system in the terminal small intestine) (Oryctolagus cuniculus, UniProt Q28727)
# T1 construct: from tissue; host or cells: brush border membrane vesicles from the terminal 7/10 of the small intestine (ileum) of male New Zealand rabbits
# T1 sequence (Q28727 1-347): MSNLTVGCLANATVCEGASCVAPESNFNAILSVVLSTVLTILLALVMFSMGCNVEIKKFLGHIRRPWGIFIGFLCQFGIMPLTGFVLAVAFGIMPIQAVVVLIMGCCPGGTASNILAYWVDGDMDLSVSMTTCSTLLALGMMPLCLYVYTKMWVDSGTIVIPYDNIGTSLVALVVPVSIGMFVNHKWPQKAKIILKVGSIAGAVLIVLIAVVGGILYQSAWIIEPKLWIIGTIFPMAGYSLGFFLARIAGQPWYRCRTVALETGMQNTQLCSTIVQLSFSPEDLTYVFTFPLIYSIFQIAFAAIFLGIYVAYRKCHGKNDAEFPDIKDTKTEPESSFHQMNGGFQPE
# Test: Inhibition of Na+-dependent [3H]-taurocholate uptake in brush border membrane vesicles of the ileum of rabbits
# Assay type: biochemical
# Conditions: quotient of IC50Na of reference taurochenedeoxycholate (TCDC) and IC50Na of test substance; rabbit ileum brush border membrane vesicles; 50 μM taurocholate
# Method: Biological testing of the compounds of the present invention was carried out by determining the inhibition of [^3 H]-taurocholate uptake in brush border membrane vesicles of the ileum of rabbits. The inhibition test was carried out as follows:
# 1. Preparation of brush border membrane vesicles from the ileum of rabbits
# Preparation of brush border membrane vesicles from the intestinal cells of the small intestine was carried out by the so-called Mg^2+ precipitation method. Male New Zealand rabbits (2 to 2.5 kg of body weight) were sacrificed by intravenous injection of 0.5 ml of T61®, an aqueous solution of 2.5 mg of tetracaine HCl, 100 mg of embutramide and 25 mg of mebezonium iodide. The small intestine was removed and rinsed with ice-cold physiological saline solution. The terminal 7/10 of the small intestine (measured in the oral-rectal direction, i.e., the terminal ileum, which contains the active Na^+ -dependent bile acid transportation system) was used for preparation of the brush border membrane vesicles. The intestines were frozen at -80° C. in plastic bags under nitrogen.
# For preparation of the membrane vesicles, the frozen intestines were thawed at 30° C. in a water-bath. The mucosa was scraped off and suspended in 60 ml of ice-cold 12 mM TRIS/HCl buffer (pH 7.1)/300 mM mannitol, 5 mM EGTA/10 mg/l of phenylmethylsulfonyl fluoride/1 mg/l of trypsin inhibitor from soybeans (32 U/mg)/0.5 mg/l of trypsin inhibitor from the bovine lung (193 U/mg)/5 mg/l of bacitracin. After dilution to 300 ml with ice-cold distilled water, the mixture was homogenized with an Ultraturrax (18-rod, IKA Werk Staufen, Germany) at 75% of the maximum for 3 minutes, while cooling with ice. After addition of 3 ml of 1 M MgCl2 solution (final concentration 10 mM), the mixture was left to stand at 0° C. for exactly 1 minute. By addition of Mg^2+, the cell membranes aggregated, and precipitated with the exception of the brush border membranes. After centrifugation at 3000× g (5000 rpm, SS-34 rotor) for 15 minutes, the precipitate was discarded and the supernatant, which contained the brush border membrane, was centrifuged at 48,000× g (20,000 rpm, SS-34 rotor) for 30 minutes. The supernatant was discarded and the precipitate was rehomogenized in 60 ml of 12 mM TRIS/HCl buffer (pH 7.1)/60 mM mannitol, 5 mM EGTA with a Potter Elvejhem homogenizer (Braun, Melsungen, 900 rpm, 10 strokes). After addition of 0.1 ml of 1 M MgCl2 solution and an incubation time of 15 minutes at 0° C., the mixture was centrifuged again at 3000× g for 15 minutes. The supernatant was then centrifuged again at 48,000× g (20,000 rpm, SS-34 rotor) for 30 minutes. The precipitate was taken up in 30 ml of 10 mM TRIS/HEPES buffer (pH 7.4)/300 mM mannitol and resuspended homogeneously by 20 strokes in a Potter Elvejhem homogenizer at 1000 rpm. After centrifugation at 48,000× g (20,000 rpm, SS-34 rotor) for 30 minutes, the precipitate was taken up in 0.5 to 2 ml of TRIS/HEPES buffer (pH 7.4)/280 mM mannitol (final concentration 20 mg/ml) and resuspended with the aid of a tuberculin syringe with a 27-gauge needle. The vesicles were either used directly for transportation studies after the preparation or stored at -196° C. in 4 mg portions in liquid nitrogen.
# 2. Inhibition of the Na^+ -dependent [^3 H]taurocholate uptake in brush border membrane vesicles of the ileum
# The uptake of substrates in the brush border membrane vesicles described above was determined by means of the so-called membrane filtration technique. 10 μl of the vesicle suspension (100 μg of protein) were pipetted as drops onto the wall of a polystyrene incubation tube (11×70 mm), which contained the incubation medium with the corresponding ligands (90 μl). […]
row,SMILES,IC5ONa -TCDC (μmol)/ IC50Na -compound (μmol)
1,CC(CCC(=O)NCCS(=O)(=O)O)C1CCC2C3C(O)CC4CC(NC(=O)CCC(=O)NC(CCCCNC(=O)OC(C)(C)C)C(=O)Nc5ccccc5C(Nc5ccccn5)C(c5ccccn5)C(O)c5ccccc5)CCC4(C)C3CC(O)C12C (centres unmarked) [Example 1k],1.59
2,COC(=O)CCC(C)C1CCC2C3C(O)CC4CC(NC(=O)CCC(=O)NCCCCC(N)C(=O)Nc5ccccc5C(Nc5ccccn5)C(c5ccccn5)C(O)c5ccccc5)CCC4(C)C3CC(O)C12C (centres unmarked) [Example 9],2.02
3,C[C@H](CCC(=O)Nc1ccccc1[C@@H](Nc1ccccn1)[C@H](c1ccccn1)[C@H](O)c1ccccc1)[C@H]1CC[C@H]2[C@@H]3[C@H](O)C[C@@H]4C[C@H](O)CC[C@]4(C)[C@H]3C[C@H](O)[C@]12C [Example 4],0.50
4,COC(=O)CCC(C)C1CCC2C3C(O)CC4CC(NC(=O)CCC(=O)NC(Cc5ccccc5)C(=O)N5CCCC5C(=O)Nc5ccccc5C(Nc5ccccn5)C(c5ccccn5)C(O)c5ccccc5)CCC4(C)C3CC(O)C12C (centres unmarked) [Example 2d],0.56
5,CC(CCC(=O)O)C1CCC2C3C(O)CC4CC(NC(=O)CCC(=O)NCCCCC(N)C(=O)Nc5ccccc5C(Nc5ccccn5)C(c5ccccn5)C(O)c5ccccc5)CCC4(C)C3CC(O)C12C (centres unmarked) [Example 10],1.63
6,CC(CCC(=O)O)C1CCC2C3C(O)CC4CC(NC(=O)CCC(=O)NC(CCCCNC(=O)OC(C)(C)C)C(=O)Nc5ccccc5C(Nc5ccccn5)C(c5ccccn5)C(O)c5ccccc5)CCC4(C)C3CC(O)C12C (centres unmarked) [Example 1j],1.51
7,CC(CCC(=O)O)C1CCC2C3C(O)CC4CC(NC(=O)CCC(=O)NC(CCCCNC(=O)OC(C)(C)C)C(=O)Nc5ccccc5C(Nc5ccccn5)C(c5ccccn5)C(O)c5ccccc5)CCC4(C)C3CC(O)C12C (centres unmarked) [Example 12],2.58
8,CC(CCC(=O)O)C1CC[C@H]2[C@@H]3[C@H](O)C[C@@H]4C[C@@H](NC(=O)CCC(=O)Nc5ccccc5C(Nc5ccccn5)C(c5ccccn5)C(O)c5ccccc5)CC[C@]4(C)[C@H]3C[C@H](O)[C@]12C (some centres unmarked) [Example 8],0.91
9,CC(CCC(=O)NCC(=O)O)C1CCC2C3C(O)CC4CC(NC(=O)CCC(=O)NC(CCCCNC(=O)OC(C)(C)C)C(=O)Nc5ccccc5C(Nc5ccccn5)C(c5ccccn5)C(O)c5ccccc5)CCC4(C)C3CC(O)C12C (centres unmarked) [Example 14],1.52
10,CC(CCC(=O)O)C1CCC2C3C(O)CC4CC(NC(=O)CCC(=O)NC(Cc5ccccc5)C(=O)N5CCCC5C(=O)Nc5ccccc5C(Nc5ccccn5)C(c5ccccn5)C(O)c5ccccc5)CCC4(C)C3CC(O)C12C (centres unmarked) [Example 2e],1.96
11,C[C@H](CCC(=O)O)[C@H]1CC[C@H]2[C@@H]3[C@H](O)C[C@@H]4C[C@@H](NC(=O)CCC(=O)Nc5ccc(C(Nc6ccccn6)C(c6ccccn6)C(O)c6ccccc6)cc5)CC[C@]4(C)[C@H]3C[C@H](O)[C@]12C (some centres unmarked) [Example 7],0.15
